This is an account of results in patent US10487087B2, “Positive allosteric modulators of the GLP-1 receptor” (Vanderbilt University, priority 2015, dated 2019).

Holding throughout (assay type): cell-based
For assay [1], the target named is T1, human GLP-1R (Homo sapiens (Human), UniProt P43220). Put plainly: GLP-1 assay with EX-4 synthetic agonist (calcium mobilization, EC20 EX-4). The following applies: calcium flux; for Emax at 30 µM: 30 μM compound, EC20 of EX-4; for EC50: potentiation of EC20 EX-4, read-out: GLP1 EC50 (Ex-4 synthetic agonist). The source says: B. GLP-1 Assay with EX-4 Synthetic Agonist
(§1) To assess the effects of test compounds on GLP-1 or glucagon potency and efficacy, a high-throughput calcium mobilization assay was used essentially as previously described (Morris L C, Days E L, Turney M, Mi D, Lindsley C W, Weaver C D, Niswender K D, A Duplexed High-Throughput Screen to Identify Allosteric Modulators of the Glucagon-Like Peptide 1 and Glucagon Receptors. J. Biomol. Screen. 2014 Feb. 13, 19(6):847-858). Briefly, human GLP-1R or Glucagon Receptor 9-3-H cells over-expressing a promiscuous G-protein (Millipore, Billerica, Mass.) were plated at 15,000 cells/well in black-walled 384-well plates (Greiner Bio-one, Monroe, N.C.) in Dulbecco's Modified Eagles Medium (DMEM) with 10% FCS, 4.0 mM L-glutamine, 1× non-essential amino acids (NEAAs), and 10.0 mM HEPES without antibiotics. After overnight attachment, cells were washed twice with assay buffer (HBSS supplemented with 20 mM HEPES and 1.0 mM probenecid) using an EL×405CW cell washer (Bio-Tek, Winooski, Vt.) and then loaded with the calcium sensitive dye fluo-4 AM (Invitrogen, Grand Island, N.Y.) at a final concentration of 2.0 μM in assay buffer. After a 45-minute incubation at room temperature, the dye was removed by washing, leaving 20 μL of assay buffer. Next, the cell plate was introduced alongside a 384-well compound plate containing 0.1% final DMSO control wells and 11-point concentration response curves of putative GLP-1 PAMs created using a non-pipet based liquid transfer instrument, ECH0555 (Labcyte, Sunnyvale, Calif.). After a 20 μL compound addition to the appropriate wells, kinetic fluorescent measurements were collected for 2 minutes using an FDSS6000 (Hamamatsu, Bridgewater, N.J.) with 488 nm excitation and 480/540 emission filters. After 2 minutes, 10 μL of an EC20 concentration of EX-4 (Phoenix Pharmaceuticals, Burlingame, Calif.), Glucagon (Phoenix Pharmaceuticals, Burlingame, Calif.) Exendin-4 (Tocris Bioscience, Bristol, UK), or Liraglutide (Victoza™, Novo-Nordisk, Denmark) was added and fluorescence was monitored for an additional 2 minutes to observe potentiation of the calcium flux signal. […] Recombinant peptides were reconstituted into assay buffer supplemented with 0.1% fatty acid free BSA (Sigma #A6003) and diluted into borosilicate glass tubes to maximize peptide recovery (Goebel-Stengel M, Stengel A, Taché Y, Reeve J R Jr., The importance of using the optimal plasticware and glassware in studies involving peptides. Anal. Biochem. 2011 Jul. 1, 414(1):38-46).
(§2) Data is from a single experiment unless otherwise noted. Data that is an average of two experiments is noted as “n=2” while data that is an average of three or more experiments is presented as the average plus or minus the standard error of the mean.
Background: Calcium assays in cells follow changes in intracellular calcium, usually with a dye or a luminescent sensor.

Assay [2] addresses T1, human GLP-1R. Put plainly: GLP-1 assay with GLP1 endogenous agonist (calcium mobilization, EC20 GLP-1 peptide 7-36 amide). The following applies: calcium flux; for Emax at 30 µM: 30 μM compound, EC20 of GLP-1 7-36 amide; for EC50: potentiation of EC20 GLP-1 7-36 amide.
Text: A. GLP-1 Assay with GLP1 Endogenous Agonist
as §1, with “L-glutamine,” for “L-glutamine, 1×”, “ELx405CW” for “EL×405CW”, “GLP-1 peptide 7-36 amide” for “EX-4”, “Tache” for “Taché”
as §2

Assay [3] addresses T1, human GLP-1R. Put plainly: GLP-1 concentration response curves in the presence of fixed concentrations of PAM (GLP-1 induced calcium flux). The note with it: 0 μM, 3 μM, 10 μM, 30 μM of compound; FIGS. 2A and 2B. The source says: FIGS. 2A and 2B show a series of GLP-1 concentration response curves in the presence of fixed concentrations of an exemplary positive allosteric modulator (Compound 1).

T1 sequence (P43220 24-463): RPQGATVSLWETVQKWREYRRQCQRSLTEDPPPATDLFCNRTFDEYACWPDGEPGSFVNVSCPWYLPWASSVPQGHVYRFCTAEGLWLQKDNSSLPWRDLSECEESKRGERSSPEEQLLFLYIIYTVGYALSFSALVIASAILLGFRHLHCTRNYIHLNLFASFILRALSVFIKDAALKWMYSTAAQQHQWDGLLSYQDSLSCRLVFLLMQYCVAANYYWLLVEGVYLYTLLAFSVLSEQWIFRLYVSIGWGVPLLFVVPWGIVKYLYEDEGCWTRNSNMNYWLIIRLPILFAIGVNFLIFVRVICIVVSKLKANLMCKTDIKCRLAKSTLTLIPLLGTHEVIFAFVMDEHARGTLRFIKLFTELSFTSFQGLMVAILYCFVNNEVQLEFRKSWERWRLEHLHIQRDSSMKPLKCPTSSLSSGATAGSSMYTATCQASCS

The Emax is the greatest response seen or fitted, relative to the assay's reference. As usually defined, the EC50 is the concentration needed to bring the measured effect to its halfway point. Regarding `Cc1c2ccccc2n2c(C(=O)NC[C@@H]3CCCN3C(C)C)cn(C3CCCC3)c(=O)c12` [Compound 1, (S)-2-Cyclopentyl-N-((1-isopropylpyrrolidin-2-yl)methyl)-10-methyl-1-oxo-1,2-dihydropyrazino[1,2-a]indole-4-carboxamide], on human GLP-1R [1], the maximum response (Emax) at 30 µM is 59% and the EC50 turned out to be 4.6 µM. Moreover, on human GLP-1R [2], the Emax at 30 µM was determined as 57% and the EC50 was determined as 2.7 µM. The “shift of GLP-1 concentration response curves / GLP-1 EC50” value on human GLP-1R [3] is recorded as “leftward shift in the GLP-1 concentration response curves”.
As for `Cc1c2n(c3ccccc13)C(C(=O)NC[C@@H]1CCCN1C(C)C)CN(C1CCCC1)C2=O` (stereo partly drawn) [Compound 3, 2-cyclopentyl-N-(((S)-1-isopropylpyrrolidin-2-yl)methyl)-10-methyl-1-oxo-1,2,3,4-tetrahydropyrazino[1,2-a]indole-4-carboxamide], at human GLP-1R [1], the maximal response (Emax) at 30 µM turned out to be 55% and the EC50 was determined as 11 µM. Further, at human GLP-1R [2], the Emax at 30 µM amounted to 50% and the EC50 stood at 5.7 µM.
For `Cc1c2n(c3ccccc13)[C@H](C(=O)NC[C@@H]1CCCN1C(C)C)CN(C1CCCC1)C2=O` [Compound 9, (S)-2-cyclopentyl-N-(((S)-1-isopropylpyrrolidin-2-yl)methyl)-10-methyl-1-oxo-1,2,3,4-tetrahydropyrazino[1,2-a]indole-4-carboxamide] the same measures were 33%, greater than 30 µM, 40% and greater than 30 µM.
As for `CC(C)N1CCC[C@H]1CNC(=O)c1cn(C2CCCC2)c(=O)c2c(Cl)c3ccccc3n12` [Compound 10, (S)-10-chloro-2-cyclopentyl-N-((1-isopropylpyrrolidin-2-yl)methyl)-1-oxo-1,2-dihydropyrazino[1,2-a]indole-4-carboxamide], on human GLP-1R [1], the Emax at 30 µM was 57% and the half-maximal effective concentration (EC50) was 1.5 µM. At human GLP-1R [2], the maximal effect (Emax) at 30 µM came to 61% and the concentration giving a half-maximal response (EC50) came out at 1.3 µM.
For `Cc1c2cc(F)ccc2n2c(C(=O)NC[C@@H]3CCCN3C(C)C)cn(C3CCCC3)c(=O)c12` [Compound 6, (S)-2-cyclopentyl-8-fluoro-N-((1-isopropylpyrrolidin-2-yl)methyl)-10-methyl-1-oxo-1,2-dihydropyrazino[1,2-a]indole-4-carboxamide] the same measures were 54%, 6.1 µM, 60% and 4.4 µM.
Turning to `CC(C)N1CCC[C@@H]1CNC(=O)c1cn(C2CCCC2)c(=O)c2c(Br)c3ccccc3n12` [Compound 13, (R)-10-bromo-2-cyclopentyl-N-((1-isopropylpyrrolidin-2-yl)methyl)-1-oxo-1,2-dihydropyrazino[1,2-a]indole-4-carboxamide], at human GLP-1R [1], the EC50 is greater than 30 µM. Further, at human GLP-1R [2], the Emax at 30 µM is 39% and the EC50 was greater than 30 µM.
Consider `Cc1c2ccccc2n2c(C(=O)NC[C@@H]3CCCN3C(C)C)cn([C@H]3CCOC3)c(=O)c12` [Compound 4, N-(((S)-1-isopropylpyrrolidin-2-yl)methyl)-10-methyl-1-oxo-2-((S)-tetrahydrofuran-3-yl)-1,2-dihydropyrazino[1,2-a]indole-4-carboxamide], for which, at human GLP-1R [1], the Emax at 30 µM turned out to be 50% and the concentration for a half-maximal effect (EC50) is 2.9 µM. In addition, at human GLP-1R [2], the Emax at 30 µM was determined as 52% and the EC50 stood at 2.4 µM.
